From the NIST ThermoML archive (doi:10.1021/acs.jced.8b01144)
± gives the expanded uncertainty stated by the source.

Details: Crystal; DSC

Triple point temperature: 453.4 ± 1.2 K
Structure (SMILES): NC(=O)c1ccc(N)cc1 [4-aminobenzamide]
